Source: patent publication US4859664A, “Derivatives of 2,3,4,5,6,7-hexahydro-2,7-methano-1,5-benzoxazonines and -1,4-benzoxazonines, processes for their production and their use as pharmaceuticals” (priority 1986, dated 1989)
Read-outs that look alike come from different tables or passages of the source.

Assays:
hot plate test = assay type: in vivo, male NMRI mice; conditions: Mus musculus, sc; plate 54° C.; 30 and 60 min; limits in brackets; read-out: ED50 (50% increase of the reaction time)
Protocol: (§1) For the pharmacological investigations described in the following, there were used male NMRI mice with a weight of from 15 to 30 g. The animals were kept under usual laboratory conditions, randomised and subjected to a light-dark change with a 12 hour rhythm. They were given a standard feed and water ad libitum up to the commencement of the experiments.
(§2) The test compounds were administered in a volume of 10 ml./kg./body weight per mouse. As carrier, there was used physiological sodium chloride solution or a suspension of 0.5% tragacanth in physiological sodium chloride solution.
The experimental results are given as average values with a mean error of the average value (x±S.E.M.). The ED50 values were calculated according to Litchfield and Wilcoxon (J. Pharmacol. Exp. Ther., 96, 99/1949). The compounds were thereby tested in 4 dosages ([…]). […]
30 and 60 minutes after the subcutaneous administration of the test compounds, the experimental animals were placed on a metal plate, the surface temperature of which was kept constant at 54° C. The time was measured up to the commencement of a pain reaction (standing on the rear paws with licking and rubbing togeth4er of the front paws or jumping). In a preceding test, the average reaction time of the animals was determined from three measurements at intervals of, in each case, 15 minutes. […]

[1] = antidepressive action: reserpine reversal test (tetrabenazine); assay type: in vivo, male NMRI mice; conditions: 50 and 25 mg./kg. s.c.
Protocol: as §1, §2
7. Antidepressive action.
There was used the reserpine reversal test (see G. Zettler, K. Mahler and F. Daniel, Naunyn-Schmiedeberg's Arch. Exp. Path. Pharmacol., 238, 468/1960; ibid. 236, 422/1958). 30 minutes after the subcutaneous administration of the test compounds, the animals (6 animals per dosage group) received subcutaneously 40 mg./kg. tetrabenazine dissolved in 0.5% aqueous ascorbic acid solution. 30 and 60 minutes after the tetrabenazine administration, the animals were placed on a vertical rod (length 90 cm., diameter 1.5 cm., coiled round with 0.2 cm. thick thread) and observed for 30 seconds. Those animals which remained motionless during this time were evaluated as being cataleptic. Previously, the degree of ptosis was assessed.

[2] = tonus reduction on striated musculature; assay type: in vivo, male NMRI mice
Protocol: as §1, §2
6. Tonus reduction on striated musculature.
The test used is described by J. P. Chambon et al. (Arzneimittelforschung (Drug Research), 35 (II), (10), 1572/1985).
5 animals per dosage group were placed with their front paws on a horizontal metal rod (diameter 3 mm., length 20 cm.) which was fixed 30 cm. above a laboratory bench. Mice with normal muscle tonus climbed within 5 seconds on to the rod with at least one rear paw.
40, 80 and 120 minutes after the subcutaneous administration of the test compound, the animals were again tested for this ability and the number of incapable animals was recorded.

[3] = assay type: in vivo, male NMRI mice; conditions: for % inhibition action ± SEM with naloxone: with naloxone hydrochloride 20 mg./kg. s.c.; for change in % (with vs without naloxone): given without sign
Protocol: They were given a standard feed and water ad libitum up to the commencement of the experiments.
as §2
The experimental results are given as average values with a mean error of the average value (x±S.E.M.). The ED50 values were calculated according to Litchfield and Wilcoxon (J. Pharmacol. Exp. Ther., 96, 99/1949). The compounds were thereby tested in 4 dosages (p≤0.5).
For the significance calculation, there was used Student's t test (see Angewandte Statistik, pub. Stringer Verlag, Berlin, Heidelberg, 242/1983), as well as the range sum test of Mann and Withney (Ann. Math. stat., 50, 1818/1947).
1.1. In the acetic acid writhing test (see R. Koster et al., Fed. proc., 18, 412/1954), the typical stretching movements referred to as "writhing", were produced by the intraperitoneal administration of a 0.6% acetic acid solution. 30 minutes previously, the substance to be tested was administered subcutaneously (s.c.) or orally ([…].) to the animals. 3 minutes after administration of the acetic acid solution, the total number of stretching movements in a period of time of 10 minutes was ascertained. From the decrease of the stretching reactions due to the action of the test compound in comparison with non-pretreated control groups, there was determined the percentage inhibition action.
Naloxone-antagonistic action in the writhing test.
20 Minutes before the subcutaneous administration of the test compounds, the animals were given 20 mg./kg. naloxone hydrochloride subcutaneously. The further carrying out of the experiments was as described above.

[4] = testing for ataxia (rotating rod test); assay type: in vivo, male NMRI mice
Protocol: as §1, §2
There was used the rotating rod test (see F. Gross et al., Schweiz. Med. Wschr., 85, 305/1955).
5 animals per dosage group were trained to keep themselves on a horizontally rotating rod made of synthetic resin (16 rpm). 40, 80 and 120 minutes after the subcutaneous administration of the test compounds, the animals were again tested. From the number of animals which fell off prematurely, there was determined the disturbance of the movement coordination.

CC12CCNCC(C1)c1ccccc1O2 (stereo not shown) [Example 6, 2,3,4,5,6,7-hexahydro-2-methyl-2,7-methano-1,5-benzoxazonine]
ED50 (hot plate test): 13.8 mg/kg | influence on tetrabenazine-induced catalepsy [1]: did not influence | influence on tetrabenazine-induced ptosis [1]: did not influence | muscle-relaxing action ([2]; 25 mg./kg. s.c.): 13% | muscle-relaxing action ([2]; 50 mg./kg. s.c.): 20% | % inhibition action ± SEM with naloxone ([3]; 12.5 mg/kg s.c.): 39.7 ± 10.4% | % inhibition action ± SEM without naloxone ([3]; 12.5 mg/kg s.c.): 33.2 ± 3.2% | change in % (with vs without naloxone) ([3]; 12.5 mg/kg s.c.): 6.5% | % inhibition action ± SEM with naloxone ([3]; 25 mg/kg s.c.): 65.5 ± 6.5% | % inhibition action ± SEM without naloxone ([3]; 25 mg/kg s.c.): 58.9 ± 10.1% | change in % (with vs without naloxone) ([3]; 25 mg/kg s.c.): 6.6% | % inhibition action ± SEM with naloxone ([3]; 50 mg/kg s.c.): 91.8 ± 3.3% | % inhibition action ± SEM without naloxone ([3]; 50 mg/kg s.c.): 84.6 ± 7.7% | change in % (with vs without naloxone) ([3]; 50 mg/kg s.c.): 7.2% | change of the maintenance time in % compared with the control group, after 40 min. ([4]; 25 mg/kg s.c.): 0% | change of the maintenance time in % compared with the control group, after 80 min. ([4]; 25 mg/kg s.c.): -8% | change of the maintenance time in % compared with the control group, after 120 min. ([4]; 25 mg/kg s.c.): 0% | change of the maintenance time in % compared with the control group, after 40 min. ([4]; 50 mg/kg s.c.): -17% | change of the maintenance time in % compared with the control group, after 80 min. ([4]; 50 mg/kg s.c.): 0% | change of the maintenance time in % compared with the control group, after 120 min. ([4]; 50 mg/kg s.c.): -8%

CC1NCCC2(C)CC1c1ccccc1O2 (stereo not shown) [Example 9, 2,3,4,5,6,7-hexahydro-2,6-dimethyl-2,7-methano-1,5-benzoxazonine]
ED50 (hot plate test): 12 mg/kg | influence on tetrabenazine-induced catalepsy [1]: did not influence | influence on tetrabenazine-induced ptosis [1]: did not influence | muscle-relaxing action ([2]; 25 mg./kg. s.c.): 13% | muscle-relaxing action ([2]; 50 mg./kg. s.c.): 20% | % inhibition action ± SEM with naloxone ([3]; 12.5 mg/kg s.c.): 52.0 ± 1.5% | % inhibition action ± SEM without naloxone ([3]; 12.5 mg/kg s.c.): 57.0 ± 7.6% | change in % (with vs without naloxone) ([3]; 12.5 mg/kg s.c.): 5.0% | % inhibition action ± SEM with naloxone ([3]; 25 mg/kg s.c.): 80.1 ± 6.8% | % inhibition action ± SEM without naloxone ([3]; 25 mg/kg s.c.): 64.0 ± 5.0% | change in % (with vs without naloxone) ([3]; 25 mg/kg s.c.): 16.1% | % inhibition action ± SEM with naloxone ([3]; 50 mg/kg s.c.): 88.4 ± 11.6% | % inhibition action ± SEM without naloxone ([3]; 50 mg/kg s.c.): 84.9 ± 2.7% | change in % (with vs without naloxone) ([3]; 50 mg/kg s.c.): 3.5% | change of the maintenance time in % compared with the control group, after 40 min. ([4]; 25 mg/kg s.c.): -13% | change of the maintenance time in % compared with the control group, after 80 min. ([4]; 25 mg/kg s.c.): -17% | change of the maintenance time in % compared with the control group, after 120 min. ([4]; 25 mg/kg s.c.): -12% | change of the maintenance time in % compared with the control group, after 40 min. ([4]; 50 mg/kg s.c.): 0% | change of the maintenance time in % compared with the control group, after 80 min. ([4]; 50 mg/kg s.c.): 0% | change of the maintenance time in % compared with the control group, after 120 min. ([4]; 50 mg/kg s.c.): -2%
